The experiment deals with T1, Ser/Thr protein phosphatase 6 (PbPP6) (Plasmodium berghei, UniProt A0A509AFY8).
T1 construct: gene PBANKA_0412100; full-length PbPP6 (308 aa), C-terminal His tag, expressed in Pichia GS115 (rPbPP6)
T1 sequence (A0A509AFY8 1-308): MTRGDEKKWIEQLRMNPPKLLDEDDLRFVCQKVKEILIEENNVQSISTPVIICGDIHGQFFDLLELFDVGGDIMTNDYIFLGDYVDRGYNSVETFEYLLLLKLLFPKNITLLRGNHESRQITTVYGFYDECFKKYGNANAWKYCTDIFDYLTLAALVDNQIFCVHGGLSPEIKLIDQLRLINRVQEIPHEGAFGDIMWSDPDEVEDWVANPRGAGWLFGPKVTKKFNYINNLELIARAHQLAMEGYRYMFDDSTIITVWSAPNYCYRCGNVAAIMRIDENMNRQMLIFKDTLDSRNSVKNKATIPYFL
As to the kind of experiment: ProFluor Ser/Thr PPase fluorescence assay (R110 substrate) with purified recombinant enzyme, dose-response. It counts as biochemical.

IC50 data for 1 molecule are collected here from publication PMC12233266, “Loss of serine/threonine protein phosphatase 6 severely impairs sexual stage development in malaria parasite Plasmodium berghei” (PLOS Pathogens, 2025).

The structures appear in SMILES notation.

In general, IC50 refers to the point on the concentration scale where inhibition reaches its midpoint. In the case of `C=C1[C@@H](O)[C@@H]2O[C@]3(CC[C@H](/C=C/[C@@H](C)[C@@H]4CC(C)=C[C@@]5(O[C@H](C[C@@](C)(O)C(=O)O)CC[C@H]5O)O4)O3)CC[C@H]2O[C@@H]1[C@@H](O)C[C@H](C)[C@H]1O[C@@]2(CCCCO2)CC[C@H]1C` [OKA, okadaic acid], the IC50 came out at 860 pM.
